Tests used:
human GST-RIPK1 = target: T1, human GST-RIPK1 (Homo sapiens, UniProt Q13546); experiment: RIPK1 inhibitory activity (ADP-Glo kinase assay); format: biochemical; settings: human GST-RIPK1 10 ng, ATP 50 uM, 25° C. for 4 hours, read-out: Enzyme IC50
T1 construct: GST; purchased signalchem
T1 sequence (Q13546 1-375 limits assumed): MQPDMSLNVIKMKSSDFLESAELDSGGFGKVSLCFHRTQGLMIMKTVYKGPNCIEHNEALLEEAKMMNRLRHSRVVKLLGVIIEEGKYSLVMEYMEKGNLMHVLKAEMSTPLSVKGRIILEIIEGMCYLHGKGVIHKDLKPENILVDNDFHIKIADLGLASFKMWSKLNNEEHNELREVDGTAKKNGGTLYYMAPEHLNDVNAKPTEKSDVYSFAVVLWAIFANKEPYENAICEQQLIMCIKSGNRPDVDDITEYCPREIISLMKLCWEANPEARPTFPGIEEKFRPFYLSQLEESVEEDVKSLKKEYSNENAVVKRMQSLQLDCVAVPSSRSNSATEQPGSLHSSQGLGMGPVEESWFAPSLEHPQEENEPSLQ
In short: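 Purified human GST-RIPK1 (10 ng) was reacted with 50 uM ATP and substrate in Tris-HCl pH 7.4, MgCl2, BSA, DTT buffer for 4 h at 25 °C. ADP formed was read by ADP-Glo luminescence. IC50 is relative to solvent control, from three data sets.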

[1] = system: human Jurkat T cells deficient in FADD; experiment: Cell protection effect under apoptosis-inducing condition (TNF-α); format: cell-based; settings: 40 ng of TNF-α, 50 hours, CellTiter-Glo, read-out: I2.I Cell EC50
In short: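 FADD-deficient Jurkat cells (10,000/well) were cultured for 24 h, then exposed to TNF-α (40 ng) plus compound in a 3-fold series from 1 µM top (0.05% DMSO) for 50 h. Viability was read by CellTiter-Glo luminescence. EC50 is the concentration giving 50% inhibition of apoptosis relative to solvent control.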

IC50 (human GST-RIPK1) [nM]	EC50 [1] [nM]	SMILES
5.3	0.2	Cc1ccc(NC(=O)N2N=CCC2c2cccc(Cl)c2)cc1C#Cc1cnc2cccnn12 (centres unmarked) [Example 14, 5-(3-chlorophenyl)-N-(3-(imidazo[1,2-b]pyridazin-3-ylethynyl)-4-methylphenyl)-4,5-dihydro-1H-pyrazole-1-carboxamide 2,2,2-trifluoroacetate]
5.1	0.06	Cc1ccc(NC(=O)N2N=CC[C@H]2c2ccccc2)cc1C#Cc1cnc2cccnn12 [Example 2, (S)—N-(3-(imidazo[1,2-b]pyridazin-3-ylethynyl)-4-methylphenyl)-5-phenyl-4,5-dihydro-1H-pyrazole-1-carboxamide 2,2,2-trifluoroacetate]
3.4	1.4	O=C(Nc1ccnc(C#Cc2cnc3cccnn23)c1)N1N=CCC1c1ccccc1 (centres unmarked) [Example 48, N-(2-(imidazo[1,2-b]pyridazin-3-ylethynyl)pyridin-4-yl)-5-phenyl-4,5-dihydro-1H-pyrazole-1-carboxamide 2,2,2-trifluoroacetate]
32.2	1.2	O=C(Nc1cccc(C#Cc2cnc3cccnn23)c1)N1N=CCC1c1cc(F)cc(F)c1 (centres unmarked) [Example 23, 5-(3,5-difluorophenyl)-N-(3-(imidazo[1,2-b]pyridazin-3-ylethynyl)phenyl)-4,5-dihydro-1H-pyrazole-1-carboxamide 2,2,2-trifluoroacetate]

From US20210284647A1, “N-(3-(IMIDAZO[1,2-B]PYRIDAZIN-3-YLETHYNYL)-4-METHYLPHENYL)-5-PHENYL-4,5-DIHYDRO-1H-PYRAZOLE-1-CARBOXAMIDE DERIVATIVE, AND PHARMACEUTICAL COMPOSITION CONTAINING SAME AS ACTIVE INGREDIENT FOR TREATING KINASE-RELATED DISEASES” (VORONOIBIO INC., priority 2018, published 2021)
